Like-named read-outs stand apart in the source and are kept apart here. Starred links: 1 amine or outer side, 2 acyl side, 3 side chain; linkers in the order of their positions; H or OH if unused. Positions of bridges follow the written chain, without caps; N, C: chain ends. Non-standard residues stand in square brackets, D forms with d. Residues, ends and D or L forms follow the SMILES beside them. ξ: configuration not given here. *: point of attachment. X9 = CCC(C)(C)C(=O)OCCC(=O)O[C@@H](CCN)C(=O)*; X11 = CCCCOP(=O)(CC(=O)*)OCCCC; Thr(3ξ) = CC(O)[C@H](N)C(=O)O; X10 = O=C(C1CNCCN1[*:1])[*:2]; X1 = CCC(C)(C)C(=O)OCCC(=O)*; X2 = CCCC(C)OC(=O)CCC(=O)*; Dab = NCC[C@H](N)C(=O)O; X4 = CCCCOC(=O)CCC(=O)*
Columns and labels:
[1] = test system: P. aeruginosa PAE 1001; type: cell-based, Pseudomonas aeruginosa
From the text: (§1) In vitro activity of compounds provided herein may be assessed by standard testing procedures such as the determination of minimum inhibitory concentration (MIC, μg/mL) just as described in “Methods for Dilution Antimicrobial Susceptibility Tests for Bacteria That Grow Aerobically; Approved Standard—Ninth Edition,” published in 2012 by the Clinical and Laboratory Standards Institute, Wayne, Pa., USA. Thus, bacterial colonies grown overnight on Mueller-Hinton Agar plate were selected and suspended in sterile saline to a turbidity of about 80% transmittance, as measured by a spectrophotometer. The suspension was diluted 200-fold with cation-adjusted Mueller-Hinton broth to serve as the inoculum for testing. Two-fold serial dilutions of the test compound were performed in 96-well master plate to arrive at desired concentration. Samples of 10 microliter from each well of the master plate were transferred into respective wells of 96-well assay plate. Bacterial inoculum (90 microliter) was introduced into each well of the assay plate. The assay plate was placed in the incubator at 35° C. for about 24 h (without agitation) followed by the MIC determination. MIC values were determined based on the presence or absence of bacterial growth in wells at the given test agent concentration. MIC value is defined as the lowest concentration of test antibiotic that prevents visible bacterial growth.
(§2) The useful activity of exemplary compounds described herein against Gram-negative pathogens Pseudomonas aeruginosa, Escherichia coli, or Klebsiela pneumoniae is illustrated by the MIC data of Table 1.

[2] = test system: E. coli WECO 1003; type: cell-based, Escherichia coli
From the text: as §1, §2

[3] = test system: K. pneumoniae KPN1004; type: cell-based, Klebsiela pneumoniae
From the text: as §1, §2

[4] = test system: P. aeruginosa; assay: P. aeruginosa thigh infection mouse model, IV dosing; type: in vivo, Pseudomonas aeruginosa; conditions: CFU change at 12 h vs no treatment control, PMB values in parenthesis side-by-side
From the text: (§3) A lower ED50 value indicates a higher therapeutic efficacy of the drug. The number of surviving animals (from the total number of infected animals used at a given drug dose) is another indicator of efficacy. […] In thigh and lung infection models, a greater reduction in the bacterial colony-forming units (CFU) indicates stronger beneficial therapeutic effect (more bacterial eradication), while a lower CFU reduction or an increase in CFU value indicates a lower effect (less bacterial eradication), or an absence of the therapeutic effect.

[5] = Stability in human plasma at 37° C.; type: in vitro ADME; conditions: human, plasma
Description: Exemplary compounds of this invention were tested for stability in human plasma at 37° C., replicating in vivo conditions of mammalian blood. Plasma stability for select compounds was performed as follows. Human plasma (K2 EDTA) was obtained from Bioreclamation. The assay was carried out in 96-well microtiter plates. Test compounds were incubated in duplicate at 37° C. in the presence of plasma. Reaction mixtures (25 μL) contained a final concentration of 25 μM test compound. The extent of metabolism was calculated as the disappearance of the test compound over time. Eucatropine was included as a positive control to verify assay performance. At each given time point, 100 μL of quench solution (100% MeCN with 0.1% HCOOH) with internal standard was transferred to each well. Plates were sealed, vortexed, and centrifuged at 4° C. for 15 minutes at 4,000 rpm. The supernatant was transferred to fresh plates for LC/MS/MS analysis. The formation of a potential metabolite was monitored in all samples. The samples were analyzed on LC/MS/MS using an AB Sciex API 4000 instrument, coupled to a Shimadzu LC-20AD LC Pump system. Analytical samples were separated using a Waters Atlantis T3 dC18 reverse phase HPLC column (20 mm×2.1 mm) at […] a flow rate of 0.5 mL/min, eluting with 0.1% aq. HCOOH and 0.1% HCOOH in MeCN (using gradient from 2% to 98% of the latter). Remaining test compounds were quantified via MS/MS ion current.

[6] = test system: E. coli; assay: E. coli septicemia (systemic) mouse model, IV dosing; type: in vivo, Escherichia coli; conditions: PMB values are side-by-side comparator
From the text: as §3

[7] = test system: P. aeruginosa; assay: P. aeruginosa lung infection (pneumonia) mouse model, SC dosing; type: in vivo, Pseudomonas aeruginosa
From the text: as §3

[8] = test system: human HK-2 cell; assay: Human HK-2 cell cytotoxicity assay (in vitro nephrotoxicity); type: cell-based
From the text: Nephrotoxicity of polymyxins could be determined in vitro using human renal […] (HK-2) cytotoxicity assay, analogously to that described, for example, by Keirstead et al. in Toxicol. Sci., 2014, vol. 137, pp. 278-291. In vivo, nephrotoxicity could be determined using urine biomarker assays, such as clinically validated neutrophil gelatinase-associated lipocalin (NGAL) assay described, for example by Devarajan in Scand. J. Clin. Lab. Invest. Suppl., 2008, vol. […], pp. 89-94.

[9] = 35° C., about 24 h, cation-adjusted Mueller-Hinton broth

Row | Compound | Antibacterial activity (MIC) P. aeruginosa PAE 1001 ([1]; PAE 1001, 24 h) [µg/mL] | Antibacterial activity (MIC) E. coli WECO 1003 ([2]; WECO 1003, 24 h) [µg/mL] | Antibacterial activity (MIC) K. pneumoniae KPN1004 ([3]; KPN1004, 24 h) [µg/mL] | P. aeruginosa Thigh model, IV dosing ΔlogCFU at 5 mg/kg [4] | remaining at 1 h, 25 μM [5] [%] | remaining at 4 h, 25 μM [5] [%] | E. coli Systemic model, IV dosing ED50 [6] [mg/kg] | number (A) of surviving animals out of total (B) mice, A/B ([6]; at 5 mg/kg) | Relative CFU count, vs. PMB ([7]; mouse lung infection, 10 mg/kg) | P. aeruginosa Lung infection model ΔlogCFU at 10 mg/kg ([7]; mouse, CFU change at 24 h vs starting inoculum) | HK-2 cytotoxicity class [8] | IC50 [8] [µM] | Antibacterial activity (MIC) P. aeruginosa PAE 1001 [1, 9] [µg/mL] | Antibacterial activity (MIC) E. coli WECO 1003 [2, 9] [µg/mL] | Antibacterial activity (MIC) K. pneumoniae KPN1004 [3, 9] [µg/mL]
1 | CCCCOC(=O)CCC(=O)N[C@@H](CCN)C(=O)N[C@H](C(=O)N[C@@H](CCN)C(=O)N[C@H]1CCNC(=O)[C@H](C(C)O)NC(=O)[C@H](CCN)NC(=O)[C@H](CCN)NC(=O)[C@H](CC(C)C)NC(=O)[C@@H](Cc2ccccc2)NC(=O)[C@H](CCN)NC1=O)C(C)O (some centres unmarked) [Example 7] (X4-[Dab][Thr(3ξ)][Dab][Dab][Dab][dF]L[Dab][Dab][Thr(3ξ)]; lactam 4-C) | 4 | 4 | 2 | −0.50 | 49 | 15 |  |  |  |  |  |  |  |  | 
2 | CCCC(C)OC(=O)CCC(=O)N1CCNCC1C(=O)N[C@H](C(=O)N[C@@H](CCN)C(=O)N[C@H]1CCNC(=O)[C@H](C(C)O)NC(=O)[C@H](CCN)NC(=O)[C@H](CCN)NC(=O)[C@H](CC(C)C)NC(=O)[C@@H](Cc2ccccc2)NC(=O)[C@H](CCN)NC1=O)C(C)O (some centres unmarked) [Example 31] (X2-[X10][Thr(3ξ)][Dab][Dab][Dab][dF]L[Dab][Dab][Thr(3ξ)]; lactam 4-C) | 8 | 8 | 8 |  |  |  |  |  |  |  |  |  |  |  | 
3 | CCC(C)(C)C(=O)OCCC(=O)N[C@@H](CCN)C(=O)N[C@H](C(=O)N[C@@H](CCN)C(=O)N[C@H]1CCNC(=O)[C@H](C(C)O)NC(=O)[C@H](CCN)NC(=O)[C@H](CCN)NC(=O)[C@H](CC(C)C)NC(=O)[C@@H](Cc2ccccc2)NC(=O)[C@H](CCN)NC1=O)C(C)O (some centres unmarked) [Example 12] (X1-[Dab][Thr(3ξ)][Dab][Dab][Dab][dF]L[Dab][Dab][Thr(3ξ)]; lactam 4-C) | 4 | 2 | 2 | −1.44 | 67 | 31 | 2.5 | 3/6 | 1.7 × 10^−5 | −2.15 | Class 4 | > 200 |  |  | 
4 | CC(C)C[C@@H]1NC(=O)[C@@H](Cc2ccccc2)NC(=O)[C@H](CCN)NC(=O)[C@@H](NC(=O)[C@H](CCN)NC(=O)[C@@H](N)[C@@H](C)O)CCNC(=O)[C@H]([C@@H](C)O)NC(=O)[C@H](CCN)NC(=O)[C@H](CCN)NC1=O [Reference Example 40, Polymyxin B nonapeptide, reference compound] (H-T[Dab][Dab][Dab][dF]L[Dab][Dab]T; lactam 3-C) | >32 | >32 | >32 |  |  |  |  |  |  |  | Class 4 | > 200 |  |  | 
5 | CCCCOP(=O)(CC(=O)N[C@@H](CCN)C(=O)N[C@H](C(=O)N[C@@H](CCN)C(=O)N[C@H]1CCNC(=O)[C@H](C(C)O)NC(=O)[C@H](CCN)NC(=O)[C@H](CCN)NC(=O)[C@H](CC(C)C)NC(=O)[C@@H](Cc2ccccc2)NC(=O)[C@H](CCN)NC1=O)C(C)O)OCCCC (some centres unmarked) [Example 30] (X11-[Dab][Thr(3ξ)][Dab][Dab][Dab][dF]L[Dab][Dab][Thr(3ξ)]; lactam 4-C) |  |  |  |  |  |  |  |  |  |  |  |  | 2 | 2 | 4
6 | CCC(C)(C)C(=O)OCCC(=O)O[C@@H](CCN)C(=O)N[C@H](C(=O)N[C@@H](CCN)C(=O)N[C@H]1CCNC(=O)[C@H](C(C)O)NC(=O)[C@H](CCN)NC(=O)[C@H](CCN)NC(=O)[C@H](CC(C)C)NC(=O)[C@@H](Cc2ccccc2)NC(=O)[C@H](CCN)NC1=O)C(C)O (some centres unmarked) [Example 34] (X9-[Thr(3ξ)][Dab][Dab][Dab][dF]L[Dab][Dab][Thr(3ξ)]; lactam 3-C) | 4 | 4 | 4 |  |  |  |  |  |  |  |  |  |  |  | 

Reference: patent US9771394B2, “Antimicrobial polymyxins for treatment of bacterial infections” (priority 2014, dated 2017)
